The target of one experiment is T1, recombinant human KDM5B (Homo sapiens, UniProt Q9UGL1).
T1 sequence (Q9UGL1 374-755 limits assumed): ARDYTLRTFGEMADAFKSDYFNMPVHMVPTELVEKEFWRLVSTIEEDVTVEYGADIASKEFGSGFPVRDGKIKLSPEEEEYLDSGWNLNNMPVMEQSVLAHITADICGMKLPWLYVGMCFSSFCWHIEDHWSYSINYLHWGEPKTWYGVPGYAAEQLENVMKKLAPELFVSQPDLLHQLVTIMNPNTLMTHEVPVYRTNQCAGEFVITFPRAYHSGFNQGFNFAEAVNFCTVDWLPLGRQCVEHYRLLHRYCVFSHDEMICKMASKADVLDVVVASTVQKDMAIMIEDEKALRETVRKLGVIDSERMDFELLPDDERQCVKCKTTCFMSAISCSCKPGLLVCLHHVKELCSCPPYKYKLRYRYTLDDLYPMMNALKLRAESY
The experiment in a line: 14CO2 capture enzymatic assay (decarboxylation of [1-14C] αKG), KDM5B. Particulars: 10 μM [1-14C] αKG, 90 μM non-labeled αKG, 50 μM peptide substrate, 37° C., 1 hour, final 1% DMSO. It is filed as biochemical. As to the method:
(§1) Enzymatic activity was determined based on the capture of ^14CO2 released by the decarboxylation of [1-^14C] αKG (Zhang et al., Anal. Biochem., 1998, vol. 271, pp. 137-142). [1-^14C]alphaketoglutarate (αKG) was from Perkin-Elmer, H3K4me3 and H3K9me3 peptides were from Mimotopes. All other reagents were from Sigma. Reaction mixtures included the following components: Fe(SO4), [1-^14C] αKG, non-labeled αKG, ascorbate, peptide-substrate (H3K4me3: H-ARTK(me3)QTARKSTGGKAPRKQLA-OH. H3K9me3: H-ARTKQTARK(me3)STGGKAPRKQLA-OH), NaCl, Tween-20 and catalase in 25 mM HEPES buffer, pH 7.4. The enzymatic reactions were initiated by addition of recombinant human KDM5B or KDM4A enzyme (truncated enzyme produced in house by method and using sequence disclosed in Ng et al, Nature 448:87-91, 2007). The reactions were performed in 96-well microtiter plates (20 μL total assay volume) (Greiner #650201). ^14CO2 was captured on a glass fiber filter paper (Cat. No. IH-201-A, Inotech Biosystems International) soaked with saturated Ba(OH)2 that was laid on top of the 96-well plate. A microtiter plate sealer film (Thermal Seal cat #T7961100) was applied to the filter paper. The plate and filter paper were sandwiched between two custom made aluminum plates (Advanced Component Manufacturing, Burlingame, CA) and transferred to a 37° C. oven and allowed to incubate for 1 hour. After incubation, the filter paper was dried in a 103° C. oven for 40-60 minutes. To determine percent turnover, aliquots of the reaction mixture were spotted onto the filter paper and the filter paper was dried again. The dry filter paper was exposed to a storage phosphor screen for 24-72 hours and the images recorded using a Typhoon FLA 7000 Imager (Amersham Biosciences, Piscataway, NJ). Integrated spot intensities corresponding to control reactions lacking the enzyme were subtracted from integration results for enzyme containing reactions and data were converted to enzyme dependent percent ^14CO2 release. All enzymatic reactions were run in duplicates.
(§2) For IC50 determination, a 3-fold dilution series of compound was prepared and added to the reaction mixture (final 1% DMSO, v/v) prior to enzyme addition. The final reagent concentrations were: 10 μM Fe(SO4), 10 μM [1-^14C] αKG, 90 μM non-labeled αKG, 2 mM ascorbate, 50 μM peptide substrate, 75 mM NaCl, 0.01% Tween-20 and ˜2 units/μL catalase. IC50s were determined by non-linear fitting using Grafit version 7.0.

A further experiment addresses T2, recombinant human KDM4A (Homo sapiens, UniProt O75164).
T2 construct: made in house
T2 sequence (O75164 1-359 limits assumed): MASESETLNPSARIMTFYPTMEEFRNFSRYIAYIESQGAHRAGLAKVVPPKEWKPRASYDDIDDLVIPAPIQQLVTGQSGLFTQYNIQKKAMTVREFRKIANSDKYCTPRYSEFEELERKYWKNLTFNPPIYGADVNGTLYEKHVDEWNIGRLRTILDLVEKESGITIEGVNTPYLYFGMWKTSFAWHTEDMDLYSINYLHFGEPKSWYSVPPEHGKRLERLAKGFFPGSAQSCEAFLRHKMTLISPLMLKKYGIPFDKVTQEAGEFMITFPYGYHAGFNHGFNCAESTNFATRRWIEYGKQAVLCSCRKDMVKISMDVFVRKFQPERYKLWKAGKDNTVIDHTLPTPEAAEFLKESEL
The experiment in a line: 14CO2 capture enzymatic assay (decarboxylation of [1-14C] αKG), KDM4A. It is filed as biochemical. Particulars: 10 μM [1-14C] αKG, 90 μM non-labeled αKG, 50 μM peptide substrate, 37° C., 1 hour, final 1% DMSO. The procedure: as §1, §2

The term IC50 denotes the concentration at which inhibition is half-maximal.

On to `N#Cc1cc(Cc2ccc(OC(F)(F)F)cc2)nc(C(=O)CCC(=O)O)c1O` [Example 47, 4-[4-Cyano-3-hydroxy-6-(4-trifluoromethoxy-benzyl)-pyridin-2-yl]-4-oxo-butyric acid], for which the IC50 on recombinant human KDM5B was 300 nM; at recombinant human KDM4A, greater than 40000 nM.

Take `N#Cc1cc(-c2cccc(Cl)c2)nc(C(=O)CCC(=O)O)c1O` [Example 23, 4-[6-(3-Chloro-phenyl)-4-cyano-3-hydroxy-pyridin-2-yl]-4-oxo-butyric acid]: the IC50 on recombinant human KDM5B was 150 nM; at recombinant human KDM4A, no less than 40000 nM.

As to `COc1ccc(-c2cc(C#N)c(O)c(C(=O)CCC(=O)O)n2)cc1` [Example 9, 4-[4-Cyano-3-hydroxy-6-(4-methoxy-phenyl)-pyridin-2-yl]-4-oxo-butyric acid], the IC50 at recombinant human KDM5B was 160 nM; at recombinant human KDM4A, greater than 40000 nM.

Regarding `Cc1ccccc1Oc1cc(C#N)c(O)c(C(=O)CCC(=O)O)c1` [Example 140, 4-(3-Cyano-2-hydroxy-5-o-tolyloxy-phenyl)-4-oxo-butyric acid], the values for the IC50 at recombinant human KDM5B and on recombinant human KDM4A were 330 nM and greater than 40000 nM, respectively.

With `N#Cc1ccccc1Cc1cc(C#N)c(O)c(C(=O)CCC(=O)O)n1` [Example 46, 4-[4-Cyano-6-(2-cyano-benzyl)-3-hydroxy-pyridin-2-yl]-4-oxo-butyric acid], the IC50 at recombinant human KDM5B came to 430 nM; on recombinant human KDM4A it was 13000 nM.

Regarding `Cc1c(Cl)cccc1-c1cc(C#N)c(O)c(C(=O)CCC(=O)O)n1` [Example 89, 4-[6-(3-Chloro-2-methyl-phenyl)-4-cyano-3-hydroxy-pyridin-2-yl]-4-oxo-butyric acid], the IC50 is 310 nM at recombinant human KDM5B and greater than 40000 nM on recombinant human KDM4A.

As for `N#Cc1cc(Oc2ccccc2)nc(C(=O)CCC(=O)O)c1O` [Example 76, 4-(4-Cyano-3-hydroxy-6-phenoxy-pyridin-2-yl)-4-oxo-butyric acid], the IC50 on recombinant human KDM5B is 190 nM; at recombinant human KDM4A, greater than 40000 nM.

As to `N#Cc1cc(-c2cc(F)ccc2Cl)nc(C(=O)CCC(=O)O)c1O` [Example 108, 4-[6-(2-Chloro-5-fluoro-phenyl)-4-cyano-3-hydroxy-pyridin-2-yl]-4-oxo-butyric acid], the values for the IC50 on recombinant human KDM5B and on recombinant human KDM4A were 270 nM and greater than 40000 nM, respectively.

With `COc1ccc(Cc2cc(C#N)c(O)c(C(=O)CCC(=O)O)n2)cc1` [Example 27, 4-[4-Cyano-3-hydroxy-6-(4-methoxy-benzyl)-pyridin-2-yl]-4-oxo-butyric acid], the figures for the half-inhibitory concentration (IC50) on recombinant human KDM5B and at recombinant human KDM4A were 550 nM and greater than 40000 nM, respectively.

Turning to `N#Cc1cc(-c2cccnc2)nc(C(=O)CCC(=O)O)c1O` [Example 13, 4-(4-Cyano-5-hydroxy-[2,3′]bipyridinyl-6-yl)-4-oxo-butyric acid], the IC50 on recombinant human KDM5B was found to be 140 nM; at recombinant human KDM4A, 22000 nM.

Turning to `N#Cc1cc(Cc2ccc(Cl)cc2Cl)nc(C(=O)CCC(=O)O)c1O` [Example 64, 4-[4-Cyano-6-(2,4-dichloro-benzyl)-3-hydroxy-pyridin-2-yl]-4-oxo-butyric acid], the IC50 on recombinant human KDM5B was 260 nM; at recombinant human KDM4A, greater than 40000 nM.

With `Cc1cccc(C)c1Cc1cc(C#N)c(O)c(C(=O)CCC(=O)O)n1` [Example 54, 4-[4-Cyano-6-(2,6-dimethyl-benzyl)-3-hydroxy-pyridin-2-yl]-4-oxo-butyric acid], the IC50 on recombinant human KDM5B came to 230 nM; at recombinant human KDM4A, 4900 nM.

For `CSc1cc(C#N)c(O)c(C(=O)CCC(=O)O)n1` [Example 5, 4-(4-Cyano-3-hydroxy-6-methylsulfanyl-pyridin-2-yl)-4-oxo-butyric acid], the IC50 at recombinant human KDM5B is 240 nM; on recombinant human KDM4A, 71000 nM.

Consider `N#Cc1cc(Cc2cccc(-c3ccccc3)c2)nc(C(=O)CCC(=O)O)c1O` [Example 51, 4-(6-Biphenyl-3-ylmethyl-4-cyano-3-hydroxy-pyridin-2-yl)-4-oxo-butyric acid], for which the values for the IC50 at recombinant human KDM5B and on recombinant human KDM4A were 200 nM and greater than 40000 nM, respectively.

`N#Cc1cc(Cc2c(Cl)ccc(F)c2Cl)cc(C(=O)CCC(=O)O)c1O` [Example 134, 4-[3-Cyano-5-(2,6-dichloro-3-fluoro-benzyl)-2-hydroxy-phenyl]-4-oxo-butyric acid]: the IC50 on recombinant human KDM5B was 120 nM; at recombinant human KDM4A, greater than 40000 nM.

With `N#Cc1cc(C2CCCCC2)nc(C(=O)CCC(=O)O)c1O` [Example 25, 4-(4-Cyano-6-cyclohexyl-3-hydroxy-pyridin-2-yl)-4-oxo-butyric acid], the IC50 on recombinant human KDM5B was 330 nM; at recombinant human KDM4A, greater than 40000 nM.

With `Cc1cc(F)ccc1-c1cc(C#N)c(O)c(C(=O)CCC(=O)O)n1` [Example 86, 4-[4-Cyano-6-(4-fluoro-2-methyl-phenyl)-3-hydroxy-pyridin-2-yl]-4-oxo-butyric acid], the IC50 was 450 nM on recombinant human KDM5B and greater than 40000 nM on recombinant human KDM4A.

In the case of `Cc1ccc(-c2cc(C#N)c(O)c(C(=O)CCC(=O)O)n2)c(C)c1` [Example 93, 4-[4-Cyano-6-(2,4-dimethyl-phenyl)-3-hydroxy-pyridin-2-yl]-4-oxo-butyric acid], the values for the concentration for half-maximal inhibition (IC50) at recombinant human KDM5B and on recombinant human KDM4A were 330 nM and greater than 40000 nM, respectively.

With `Cc1cc(C(F)(F)F)ccc1-c1cc(C#N)c(O)c(C(=O)CCC(=O)O)n1` [Example 96, 4-[4-Cyano-3-hydroxy-6-(2-methyl-4-trifluoromethyl-phenyl)-pyridin-2-yl]-4-oxo-butyric acid], the figures for the IC50 on recombinant human KDM5B and on recombinant human KDM4A were 310 nM and greater than 40000 nM, respectively.

Take `N#Cc1cc(Cc2ccc(-c3ccccc3)cc2)nc(C(=O)CCC(=O)O)c1O` [Example 50, 4-(6-Biphenyl-4-ylmethyl-4-cyano-3-hydroxy-pyridin-2-yl)-4-oxo-butyric acid]: the results for the IC50 at recombinant human KDM5B and at recombinant human KDM4A were 390 nM and greater than 40000 nM, respectively.

Regarding `Cc1ccc(-c2cc(C#N)c(O)c(C(=O)CCC(=O)O)n2)c(Cl)c1` [Example 84, 4-[6-(2-Chloro-4-methyl-phenyl)-4-cyano-3-hydroxy-pyridin-2-yl]-4-oxo-butyric acid], the IC50 at recombinant human KDM5B was 460 nM; at recombinant human KDM4A, greater than 40000 nM.

For `N#Cc1cc(Cc2ccc3ccccc3c2)nc(C(=O)CCC(=O)O)c1O` [Example 24, 4-(4-Cyano-3-hydroxy-6-naphthalen-2-ylmethyl-pyridin-2-yl)-4-oxo-butyric acid], the half-maximal inhibitory concentration (IC50) at recombinant human KDM5B is 520 nM; on recombinant human KDM4A, greater than 40000 nM.

Regarding `Cc1noc(C)c1Cc1cc(C#N)c(O)c(C(=O)CCC(=O)O)n1` [Example 154, 4-[4-Cyano-6-(3,5-dimethyl-isoxazol-4-ylmethyl)-3-hydroxy-pyridin-2-yl]-4-oxo-butyric acid], the results for the IC50 at recombinant human KDM5B and at recombinant human KDM4A were 260 nM and 1400 nM, respectively.

Consider `N#Cc1cc(-c2ccccc2)nc(C(=O)CCC(=O)O)c1O` [Example 7, 4-(4-Cyano-3-hydroxy-6-phenyl-pyridin-2-yl)-4-oxo-butyric acid], for which the results for the IC50 at recombinant human KDM5B and at recombinant human KDM4A were 210 nM and greater than 40000 nM, respectively.

On to `COc1ccc(Oc2cc(C#N)c(O)c(C(=O)CCC(=O)O)c2)cc1` [Example 141, 4-[3-Cyano-2-hydroxy-5-(4-methoxy-phenoxy)-phenyl]-4-oxo-butyric acid], for which the results for the IC50 at recombinant human KDM5B and on recombinant human KDM4A were 250 nM and greater than 40000 nM, respectively.

`Cc1cc(C#N)c(O)c(C(=O)CCC(=O)O)n1` [Example 6, 4-(4-Cyano-3-hydroxy-6-methyl-pyridin-2-yl)-4-oxo-butyric acid]: the IC50 on recombinant human KDM5B is 280 nM; on recombinant human KDM4A, greater than 40000 nM.

Values taken from US20240002344A1, “COMPOUNDS, COMPOSITIONS AND METHODS FOR HISTONE LYSINE DEMETHYLASE INHIBITION” (FibroGen, Inc., priority 2020, published 2024).
